Common to all, as to assay: FACS analysis on PI stained tumor cells, G2/M arrest
What all share (format): cell-based
For orientation: In flow cytometry, cells or beads pass a laser one at a time.

For one assay, the system named is HepG2. Particulars: Homo sapiens; HepG2 (Liver), 24 hrs; read-out: FACS Analysis G2M-Arrest EC50. An excerpt:
(§1) FACS Analysis on PI Stained Tumor Cells
(§2) Propidium iodine (PI) binds stoichiometrically to double stranded DNA and thus is a suitable agent to measure the DNA content of cells in order to determine the percentage of cells residing in various cell cycle stages (G0/1-, S- and G2/M-phases), whereas cells in G0 or G1 phase do have a diploid DNA content (2N) cells in G2 and M-phase (mitosis) do have a doubled (4N) DNA content.
(§3) Cell culture: The various human tumor cell lines can be purchased from American Type Culture Collection (ATCC) or the German Collection of Microorganisms and Cell Cultures (DSMZ) and cultivated in 75 to 175 cm^2 tissue culture flasks in the medium indicated by the supplier. The cells are maintained at 37° C. and 5% CO2 in a humidified atmosphere, with an appropriate split ratio. Logarithmically growing cells are used for the assays.
(§4) Assay conditions: On day one of the experiment 1×10^6 tumor cells are plated in 15 ml medium onto each 75 cm^2 tissue culture flask and the cultures are returned to the incubator. On the next day serial twofold dilutions (100× concentrated) of the inhibitor are prepared in tissue culture medium containing 10% DMSO. 150 μl of the 100× concentrated dilution is added to the 15 ml medium in the flask. As control DMSO is given into a separate flask to yield a final concentration of 0.1%. Typical final concentrations used are 1.6, […], 0.4, 0.2, 0.1, 0.05, 0.025, 0.0125, 0.00625 μM in medium containing 0.1% DMSO. After 24 hrs of incubation cells are harvested by 2× wash with PBS and subsequent addition of trypsin/EDTA. Trypsinized cells are washed off the plastic with 1% BSA in PBS. Non-adherent cells in the medium and cells in the PBS wash fluids are pelleted together with the trypsinized cells by centrifuging them for 5 min at 1000 rpm at 4° C. The supernatants are discarded and the pellet is washed twice with PBS. After aspiration of the supernatants pellets are resuspended in the residual PBS (˜100 μl). For cell fixation, 15 ml test tubes (Falcon) with 5 ml of 80% cold ethanol are prepared and the cell suspension is added slowly and kept for at least 2 h or overnight at minus 20° C. Fixed cells are pelleted, washed once with PBS and the cell pellet is then resuspended in 2 ml of 0.25% Triton X-100 in PBS. After 5 min incubation on ice, 5 ml of PBS is added to each sample and the sample is again centrifuged at 1000 rpm for 5 min at 4° C. The supernatant is discarded and the pellet is resuspended in 0.5 ml propidium iodine (PI) staining solution (0.1% RNase and 10 μg/ml propidium iodine in PBS). The cells are incubated for 20 min in the dark and subsequently transferred to 5 ml polystyrene round-bottom tubes.
(§5) Data analysis: Analysis of the DNA content of the cells can be performed using a FACS analyzer equipped with an argon laser (500 mW, emission 488 nm) and the use of the DNA Cell Quest analysis software (Beckton Dickinson). The logarithmic PI fluorescence is determined in a band-pass filter (Beckton Dickinson 585/43). Quantification of the cell populations residing in the individual cell cycle phases (e.g. G0/G1-, S- and G2/M-phases) is done with the ModFit LT software package from Becton Dickinson. An EC50 value for cells arrested at the G2/M-phase of the cell cycle is calculated by using a sigmoidal curve analysis program (Graph Pad Prism version 3.03).

Another assay relates to PC-3. Particulars: Homo sapiens; PC-3 (Prostate), 24 hrs; read-out: FACS Analysis G2M-Arrest EC50.
From the text: as §1, §2, §3, §4, §5

A further assay concerns SKOV-3. The following applies: Homo sapiens, SK-OV-3; SKOV-3 (Ovary), 24 hrs; read-out: FACS Analysis G2M-Arrest EC50.
From the text: as §1, §2, §3, §4, §5

The next assay concerns A549. Particulars: Homo sapiens; A549 (Lung), 24 hrs; read-out: FACS Analysis G2M-Arrest EC50.
From the text: as §1, §2, §3, §4, §5

The subject of another assay is Saos-2. The following applies: Homo sapiens; Saos-2 (Bone), 24 hrs; read-out: FACS Analysis G2M-Arrest EC50.
From the text: as §1, §2, §3, §4, §5

A further assay relates to A431. The following applies: Homo sapiens, A-431; A431 (Vulva), 24 hrs; read-out: FACS Analysis G2M-Arrest EC50.
From the text: as §1, §2, §3, §4, §5

A further assay concerns MDA-MB-435S. The following applies: Homo sapiens; MDA-MB-435S (Breast), 24 hrs; read-out: FACS Analysis G2M-Arrest EC50.
From the text: as §1, §2, §3, §4, §5

The subject of a further assay is NCI-H460. The following applies: Homo sapiens; NCI-H460 (Lung), 24 hrs; read-out: FACS Analysis G2M-Arrest EC50.
From the text: as §1, §2, §3, §4, §5

The test system of another assay is H4. The following applies: Homo sapiens; H4 (Brain), 24 hrs; read-out: FACS Analysis G2M-Arrest EC50.
From the text: as §1, §2, §3, §4, §5

The next assay deals with Raji. Particulars: Homo sapiens; Raji (Lymphoma), 24 hrs; read-out: FACS Analysis G2M-Arrest EC50.
From the text: as §1, §2, §3, §4, §5

The next assay concerns HeLa S3. Particulars: Homo sapiens; HeLa S3 (Cervix), 24 hrs; read-out: FACS Analysis G2M-Arrest EC50.
From the text: as §1, §2, §3, §4, §5

In the next assay the test system is BxPC-3. The following applies: Homo sapiens; BxPC-3 (Pancreas), 24 hrs; read-out: FACS Analysis G2M-Arrest EC50.
From the text: as §1, §2, §3, §4, §5

A further assay deals with GRANTA-519. Particulars: Homo sapiens; GRANTA-519 (Lymphoma), 24 hrs; read-out: FACS Analysis G2M-Arrest EC50.
From the text: as §1, §2, §3, §4, §5

The next assay relates to FaDu. Particulars: Homo sapiens; FaDu (Head and Neck), 24 hrs; read-out: FACS Analysis G2M-Arrest EC50.
From the text: as §1, §2, §3, §4, §5

Another assay relates to NCI-H520. Particulars: Homo sapiens; NCI-H520 (Lung), 24 hrs; read-out: FACS Analysis G2M-Arrest EC50.
From the text: as §1, §2, §3, §4, §5

Usually EC50 stands for the concentration needed to bring the measured effect to its halfway point. In the case of `CC[C@@H]1C(=O)N(C)c2cnc(Nc3ccc(C(=O)NC4CCN(C)CC4)cc3OC)nc2N1C1CCCC1` [4-[[(7R)-8-cyclopentyl-7-ethyl-5,6,7,8-tetrahydro-5-methyl-6-oxo-2-pteridinyl]amino]-3-methoxy-N-(1-methyl-4-piperidinyl)-benzamide], the EC50 in the assay on HepG2 was found to be 0.039 µM; in the assay with PC-3, 0.012 µM; in the assay with SKOV-3 it was 0.011 µM; in the assay with A549 it was 0.014 µM; with Saos-2, 0.011 µM; in the assay on A431, 0.006 µM. In addition, the EC50 amounted to 0.038 µM in the assay with MDA-MB-435S; 0.032 µM in the assay with NCI-H460; 0.039 µM with H4; 0.02 µM in the assay with Raji; 0.016 µM in the assay on HeLa S3; 0.022 µM with BxPC-3. Moreover, the EC50 in the assay on GRANTA-519 was found to be 0.012 µM; in the assay with FaDu, 0.007 µM; with NCI-H520 it was 0.018 µM.
